According to patent US6413974B1, “6,9,-disubstituted 2-[trans-(4-aminocyclohexyl) amino] purines” (Aventis Pharmaceuticals Inc., priority 1998, dated 2002):
“And” between values parts separate entries of the source, which are not always exact repeats. Equal entries are not always repeated. Structures can show the parent of a compound that is named as a salt. Where two headings read alike, the source gives them in different places.

Legend:
A549 = assay: In vitro tumor cell proliferation, A549; assay type: cell-based, human; details: read-out: In vitro Tumor Cell Proliferation (IC50, μM) Lung A549
Protocol: (§1) The proliferation of tumor cells was measured using a sulforhodamine B assay as described in Skehan, P., et al., J. Natl. Cancer Inst. […] Tumor cells were harvested with trypsin-EDTA, cells that excluded trypan blue were counted, added to 96-well plates and incubated overnight at 37° C. Drug was added to the wells following dilution in culture medium. Three days later, the medium was removed and replenished with medium containing fresh drug and incubated an additional 4 days. The cells were then fixed with 0.1 ml 10% trichloroacetic acid for 60 min at 4° C. The plates were rinsed five times with tap water, air-dried and stained for 30 min with 0.4% sulforhodamine B in 1% acetic acid and air-dried.
(§2) Alternatively, the CyQUANT cell proliferation assay was used to quantify tumor cell proliferation. Tumor cells were harvested with trypsin-EDTA, cells that excluded trypan blue were counted, added to 96-well plates and incubated overnight at 37° C. Drug was added to the wells following dilution in culture medium. Three days later the medium was removed and the plates frozen at −80° C. for at least 30 minutes.

cdk4/cyclin D1 = biological target: T1, cdk4/cyclin D1 (Homo sapiens, UniProt P11802); assay: Cyclin-dependent kinase 4 Assay; assay type: biochemical; details: cdk4/cyclin D1, GST-Rb substrate, 10 μM ATP, 30 min at 37° C.; read-out: CDK4 Inhibition IC50
T1 construct: made in house; host or cells: Sf9 insect cells (Bac-to-Bac baculovirus, pFastBac)
Protocol: The IC50 values for cdk-4 inhibition were by the following method:
(§3) The transformed bacteria were grown overnight to saturation, then diluted in YT broth and incubated at 37° C. for 2 h. The protein was induced by incubation with 0.1 mM isopropylthioglycoside for 3 h. Following sedimentation by centrifugation, the cells were lysed by sonication in STE buffer ([…] NaCl, 10 mM Tris, pH 8.0, 1 mM EDTA) containing 10% sarkosyl. Particulate matter was removed by centrifugation and the lysate was incubated with glutathione-Sepharose at 4° C. The beads were washed with kinase buffer and then quantitation of Coomassie blue-stained proteins separated by SDS-PAGE was performed using a protein standard of known concentration.
The cDNA for human cyclin D1 was cloned by RT PCR using […] from MCF-7 cells. […] Bacmid DNA was used to transfect Sf9 insect cells to produce recombinant virus. Following plaque purification of the virus, the viral preparations were amplified until high titer stocks were acheived.
Lysates were prepared by lysis of Sf9 cells coinfected with cdk4 and cyclin D1 in 50 mM HEPES, pH 7.5, 10 mM MgCl2, 1 mM DTT, 0.1 mM phenylmethylsulfonyl fluoride, 5 μg/ml aprotinin, and 5 μg/ml leupeptin using a PARR bomb under 500 p.s.i nitrogen pressure for 5 min at 4° C. Insoluble material was sedimented at 10,000×g for 20 min at 4° C. Glycerol was added to the supernatant to 10% and stored at −80° C. in aliquots.
(§4) Pre-wet Millipore Multiscreen 96-well filter plates (0.65 μm Durapore filters) with 200 μl kinase buffer (50 mM HEPES, pH 7.5, 10 mM MgCl2, 1 mM EGTA). GST-Rb (0.5 μg) bound to glutathione-Sepharose beads is added in 50 μl per well and the solution removed by application of vacuum. […] Add 0.1 μg cdk4/cyclin D1 (insect cell lysate) to initiate assay. Incubate 30 min at 37° C. Terminate reaction by filtration on Millipore Vacuum Manifold. Wash four times with TNEN (20 mM Tris, pH 8.0, 100 mM Na Cl, 1 mM EDTA, 0.5% nonidet P-40). After drying the plates at room temperature, the filter plates were placed in adapter plates (Packard) and 40 μl of Microscint-O® (Packard) was added to each well. Top Seal A film was used to cover the plates before counting in a Top Count Scintillation Counter.

MDA-MB-231 = assay: In vitro tumor cell proliferation, MDA-MB-231; assay type: cell-based, human; details: read-out: In vitro Tumor Cell Proliferation (IC50, μM) Breast MDA-MB-231
Protocol: as §1, §2

DU 145 = assay: In vitro tumor cell proliferation, DU 145; assay type: cell-based, human; details: read-out: In vitro Tumor Cell Proliferation (IC50, μM) Prostate DUI45
Protocol: as §1, §2

HT-29 = assay: In vitro tumor cell proliferation, HT-29; assay type: cell-based, human; details: read-out: In vitro Tumor Cell Proliferation (IC50, μM) Colon HT-29 (converted)
Protocol: as §1, §2
HT-29 is a human colon adenocarcinoma, moderately well-differentiated grade II (HTB 38);

MDA-MB-435 = assay: In vitro tumor cell proliferation, MDA-MB-435; assay type: cell-based, human; details: read-out: In vitro Tumor Cell Proliferation (IC50, μM) Breast MDA-MB-435
Protocol: as §1, §2

cdk2/cyclin E = biological target: T2, cdk2/cyclin E (Homo sapiens, UniProt P24941); assay: Cyclin-Dependent Kinase 2 Assay (cdk-2 inhibition); assay type: biochemical; details: GST-Rb substrate, 30 min at 30° C.
T2 construct: made in house; host or cells: insect cells (baculovirus co-infection)
Protocol: as §3, §4
GST-Rb as described above for cdk4/cyclin D1
Assay conditions for cdk2/cyclin E were identical to those for cdk4/cyclin D1 including the substrate. The concentration of recombinant cdk2/cyclin E in the assay was 0.1 μg per 100 μl assay. Incubation was for 30 min at 30° C.

DMS-114 = assay: In vitro tumor cell proliferation, DMS-114; assay type: cell-based, human; details: read-out: In vitro Tumor Cell Proliferation (IC50, μM) Lung DMS-114
Protocol: as §1, §2

Colo-205 = assay: In vitro tumor cell proliferation, Colo-205; assay type: cell-based, human; details: read-out: In vitro Tumor Cell Proliferation (IC50, μM) Colon Colo-205
Protocol: as §1, §2

PC-3 = assay: In vitro tumor cell proliferation, PC-3; assay type: cell-based, human; details: read-out: In vitro Tumor Cell Proliferation (IC50, μM) Prostate PC-3
Protocol: as §1, §2

[1] = Homo sapiens, A549, values marked * (mark not explained)
[2] = Homo sapiens, MDA-MB-231, values marked * (mark not explained)
[3] = values marked * (mark not explained), dihydrochloride
[4] = Homo sapiens, DU-145, values marked * (mark not explained)
[5] = Homo sapiens, HT-29, values marked * (mark not explained)
[6] = Homo sapiens, DMS-114, values marked * (mark not explained)
[7] = Homo sapiens, COLO 205, values marked * (mark not explained)
[8] = Homo sapiens, PC-3, values marked * (mark not explained)
[9] = Homo sapiens, MDA-MB-435, values marked * (mark not explained)

T1 sequence (P11802 whole entry): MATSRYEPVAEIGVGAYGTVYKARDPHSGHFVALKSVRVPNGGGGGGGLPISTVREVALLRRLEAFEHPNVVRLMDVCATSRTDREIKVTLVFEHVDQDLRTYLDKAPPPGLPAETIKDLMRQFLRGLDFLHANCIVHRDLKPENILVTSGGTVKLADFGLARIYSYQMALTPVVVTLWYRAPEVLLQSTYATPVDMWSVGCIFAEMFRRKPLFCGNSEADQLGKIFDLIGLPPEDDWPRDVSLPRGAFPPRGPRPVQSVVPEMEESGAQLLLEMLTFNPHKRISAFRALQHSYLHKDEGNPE
T1 sequence (P24385 whole entry partner): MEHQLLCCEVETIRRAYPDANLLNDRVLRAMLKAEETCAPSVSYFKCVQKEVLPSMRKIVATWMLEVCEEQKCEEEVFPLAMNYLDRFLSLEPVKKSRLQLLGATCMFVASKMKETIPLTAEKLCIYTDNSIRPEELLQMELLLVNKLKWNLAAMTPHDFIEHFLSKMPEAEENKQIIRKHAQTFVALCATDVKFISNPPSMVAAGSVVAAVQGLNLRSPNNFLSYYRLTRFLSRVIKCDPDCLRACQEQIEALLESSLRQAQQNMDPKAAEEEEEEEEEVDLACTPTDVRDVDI

| SMILES | IC50 (A549; [1]) | IC50 (cdk4/cyclin D1) | IC50 (MDA-MB-231; [2]) | IC50 (MDA-MB-231; [3]) | IC50 (DU 145; [4]) | IC50 (DU 145; [3]) | IC50 (HT-29; [5]) | IC50 (MDA-MB-435; [3]) | IC50 (cdk2/cyclin E) | IC50 (DMS-114; [6]) | IC50 (DMS-114; [3]) | IC50 (Colo-205; [7]) | IC50 (Colo-205; [3]) | IC50 (HT-29; [3]) | IC50 (PC-3; [8]) | IC50 (PC-3; [3]) | IC50 (MDA-MB-435; [9]) | IC50 (A549; [3]) | IC50 (DU 145; Homo sapiens, DU-145, values without *) |
| --- | --- | --- | --- | --- | --- | --- | --- | --- | --- | --- | --- | --- | --- | --- | --- | --- | --- | --- | --- |
| N[C@H]1CC[C@H](Nc2nc(NCCc3c[nH]c4ccccc34)c3ncn(C4CCCC4)c3n2)CC1 [Example 2, 2-[Trans-(4-aminocyclohexyl)amino]-6-[(3-indolyl)-2-ethylamino]-9-cyclopentylpurine dihydrochloride] | 11 µM | 0.6 µM and 0.9 µM | 6.5 µM | 6.6 µM | 12 µM | 6.7 µM | 10 µM | 11 µM | 0.14 µM | 8.7 µM | 10 µM | 11 µM | 8.6 µM | – | – | – | – | – | – |
| N[C@H]1CC[C@H](Nc2nc(NCCCN3CCOCC3)c3ncn(C4CCCC4)c3n2)CC1 [Example 9, 2-[Trans-(4-aminocyclohexyl)amino]-6-[3-(4-morpholinyl)propylamino]-9-cyclopentylpurine dihydrochloride] | – | 0.3 µM and 0.4 µM | 2.7 µM | 2.6 µM | 4.4 µM | 3.2 µM | 5.6 µM | 6 µM | 0.09 µM and 0.15 µM | 3.7 µM | 2.8 µM | – | – | 5.1 µM | 4.6 µM | 3.1 µM | 5.2 µM | – | – |
| N[C@H]1CC[C@H](Nc2nc(NCCc3ccccn3)c3ncn(C4CCCC4)c3n2)CC1 [Example 12, 2-[Trans-(4-aminocyclohexyl)amino]-6-[2-(2-pyridyl)ethylamino]-9-cyclopentylpurine dihydrochloride] | – | 0.3 µM and 0.2 µM | 6 µM | – | 10 µM | – | 11 µM | 9.4 µM | 0.22 µM | 15 µM | 11 µM | 6.4 µM | 6.2 µM | 12 µM | 7.9 µM | 6.1 µM | 8.7 µM | – | – |
| N[C@H]1CC[C@H](Nc2nc(NNCCO)c3ncn(C4CCCC4)c3n2)CC1 [Example 14, 2-[Trans-(4-aminocyclohexyl)amino]-6-[2-hydroxyethylhydrazino]-9-cyclopentylpurine dihydrochloride] | 24 µM | 0.058 µM and 0.067 µM | 19 µM | 22 µM | 17 µM | 21 µM | 34 µM | 27 µM | 0.046 µM | 22 µM | 20 µM | 17 µM | 16 µM | 29 µM | – | – | 44 µM | 15 µM | – |
| CCC(C)(CO)Nc1nc(N[C@H]2CC[C@H](N)CC2)nc2c1ncn2C1CCCC1 (some centres unmarked) [Example 23, dihydrochloride] | – | 4 µM and 2.5 µM | 19 µM | 25 µM | 15 µM | 17 µM | 16 µM | 38 µM | 0.27 µM | 28 µM | 23 µM | – | – | > 20 µM | 16 µM | – | 23 µM | 10 µM | – |
| CNc1nc(N[C@H]2CC[C@H](N)CC2)nc2c1ncn2C1CCCC1 [Example 28, 2-[Trans-(4-aminocyclohexyl)amino]-6-(methylamino)-9-cyclopentylpurine dihydrochloride] | – | 0.19 µM and 0.22 µM | 1.3 µM | 1.6 µM | 1.7 µM | – | 1.8 µM | 4.5 µM | 0.038 µM | 1.4 µM | – | 1.9 µM | 2.1 µM | – | – | – | 3.2 µM | – | 0.86 µM |
| N[C@H]1CC[C@H](Nc2nc(NCCc3ccncc3)c3ncn(C4CCCC4)c3n2)CC1 [Example 31, 2-[Trans-(4-aminocyclohexyl)amino]-6-[(4-pyridyl)-2-ethylamino]-9-cyclopentylpurine dihydrochloride] | 10 µM | 0.49 µM and 1 µM | 7.4 µM | 8.6 µM | 6.7 µM | 4.4 µM | 10 µM | 10 µM | 0.08 µM and 0.06 µM | 5.6 µM | – | 5.6 µM | 6.6 µM | 7.3 µM | – | – | – | – | – |
| N[C@H]1CC[C@H](Nc2nc(NCC(F)(F)F)c3ncn(C4CCCC4)c3n2)CC1 [Example 49, 2-[Trans-(4-aminocyclohexyl)amino]-6-[2,2,2-trifluoroethylamino]-9-cyclopentylpurine dihydrochloride] | 2.2 µM | 2.2 µM | 8.6 µM | 6 µM | 4.4 µM | 4.9 µM | 7.3 µM | 12 µM | 0.09 µM | 5.6 µM | – | 6.6 µM | 5.5 µM | 6 µM | – | – | 10 µM | – | – |
| N[C@H]1CC[C@H](Nc2nc(NNCC(F)(F)F)c3ncn(C4CCCC4)c3n2)CC1 [Example 52, 2-[Trans-(4-aminocyclohexyl)amino]-6-[2,2,2-trifluoroethylhydrazino]-9-cyclopentylpurine dihydrochloride] | – | 1.8 µM | 2.7 µM | 3.1 µM | 2.3 µM | 2.8 µM | 3.6 µM | 5.1 µM | 91 nM and 44 nM (2×) | 1.7 µM | – | 3.1 µM | 3.2 µM | – | – | – | 5.6 µM | – | – |
